From PMC9333195, “Discovery of 2-Phenylquinoline-4-Carboxylic Acid Derivatives as Novel Histone Deacetylase Inhibitors” (Frontiers in Chemistry, 2022)

Columns and labels:
[1] = tested on: K562 cells; experiment: Cell apoptosis analysis by flow cytometry (Annexin V-BV421 / 7-AAD); conditions: 24 h, control 1.14%
Description: Cells were incubated with Annexin V-BV421(Becton Dickinson, United States) and 7-AAD (Becton Dickinson, United States) double labeling for 30 min in the dark at room temperature and measured by flow cytometry (FACSAriaIII, Becton Dickinson, United States). The data was analyzed by using Flowjo-V10 software.

[2] = tested on: K562 cells; experiment: Cell cycle analysis by flow cytometry (PI staining); assay type: cell-based; conditions: K562 cells, 1 and 2 µM, 24 h
Description: Deregulation of the cell cycle divided into G0/G1 phase, S phase, and G2/M phase is one of the most frequent alterations during cancer development. Thus, the cell cycle analysis is usually performed in the anticancer evaluation.
After treatment, cells were collected and fixed with 70% pre-cold ethanol in PBS and stored at −20°C overnight. […] Finally, DNA content was measured by flow cytometry (FACSAriaIII, Becton Dickinson, United States). The data was analyzed and fitted by ModFit software.

[3] = tested on: U937; experiment: CCK-8 antiproliferative assay, U937; conditions: Homo sapiens, U-937, 72 h, read-out: Antiproliferative IC50 U937
Description: (§1) The proliferation of cancer cells was tested by CCK-8 assay. Briefly, cells were seeded in a 96-well plate with about 5 × 10^3 cells in each well. In the K652 cell screening, cells were treated with 2.0 μM of tested compounds. […] The light absorbance at 450 nm was measured by using an Opsys microplate reader (Dynex Technologies, Chantilly, VA, United States).

[4] = tested on: HepG2; experiment: CCK-8 antiproliferative assay, HepG2; conditions: Homo sapiens, HepG2, 72 h, read-out: Antiproliferative IC50 HepG2
Description: as §1

[5] = tested on: K562 cells; experiment: CCK-8 antiproliferative assay, K562; conditions: Homo sapiens
Description: as §1

[6] = tested on: Fadu; experiment: CCK-8 antiproliferative assay, Fadu; conditions: Homo sapiens, 72 h, read-out: Antiproliferative IC50 Fadu
Description: as §1

[7] = tested on: Hela nucleus extract containing a mixture of HDAC isoforms; experiment: In vitro HDAC inhibitory assay, HeLa cell nuclear extract screening at 2 µM; assay type: biochemical; conditions: 2.0 µM compound, mean of three experiments
Description: The HDAC enzyme inhibitory activities of synthesized compounds were evaluated against Hela nucleus extract containing a mixture of HDAC isoforms. Percentage inhibitory rate (PIR) was calculated to determine the activity of tested compounds (Table 1).
All HDAC enzymes were purchased from BPS Bioscience. […] The reaction was terminated by adding 100 μl of imaging agent containing trypsin and trichostatin A (TSA). After standing for 20 min, the fluorescence intensity was measured at the excitation and emission wavelengths of 360 and 460 nm with a microplate reader. The inhibition rate was calculated from the fluorescence intensity readings of the test wells relative to the control wells, and the IC50 curve and value were determined by GraphPad Prism 6.0 software.

SMILES	apoptotic cell proportion (apoptotic rate) ([1]; K562, 1 μM)	apoptotic cell proportion (apoptotic rate) ([1]; K562, 2 μM)	apoptotic cell proportion (apoptotic rate) ([1]; K562, 4 μM)	phase of induced cell cycle arrest [2]	IC50 [3]	IC50 [4]	IC50 ([5]; K562, 72 h, read-out: Antiproliferative IC50 K562)	IC50 [6]	HDACs percentage inhibitory rate (PIR) [7]	melting point	inhibition at 2 µM ([5]; K562, read-out: K562 percentage inhibitory rate)
O=C(CCCCCCC(=O)Nc1ccccc1)NO [SAHA, Vorinostat, reference compound]	1.39%	3.36%	19.75%	G0/G1 phase	1680 ± 30 nM	1870 ± 110 nM	1550 ± 20 nM	2170 ± 920 nM	–	–	–
O=C(NO)c1ccc(N2CCN(C(=O)c3cc(-c4ccc(NC(=O)c5ccccc5F)cc4)nc4ccccc34)CC2)cc1 [Compound D22, 2-Fluoro-N-(4-(4-(4-(4-(Hydroxycarbamoyl)Phenyl)Piperazine-1-Carbonyl)Quinolin-2-yl)Phenyl)Benzamide]	–	–	–	–	–	–	–	–	56.86 ± 1.79%	163.5 to 164.2 °C	65.1 ± 1.34%
